Laboratory results published in patent US20260262643A1, “HERBICIDAL BENZOXAZINES” (FMC CORPORATION, priority 2022, published 2026).

How the values were obtained:
kochia [1] = experiment: Test A preemergence; type: in vivo, Bassia scoparia
Procedure, shortened: (§1)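 Seeds in loam–sand blend received a directed preemergence soil spray of compound in non-phytotoxic solvent with surfactant; postemergence plants (2–10 cm, one- to two-leaf stage) were sprayed with the same formulation. After 10 days in greenhouse, injury was rated visually versus untreated controls, 0 (no effect) to 100 (complete control).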

kochia [2] = experiment: Test A postemergence; type: in vivo, Bassia scoparia
Procedure, shortened: as §1

galium = experiment: Test A postemergence; type: in vivo, Galium aparine
Procedure, shortened: as §1

blackgrass [3] = experiment: Test A postemergence; type: in vivo, Alopecurus myosuroides
Procedure, shortened: as §1

oat, wild [4] = experiment: Test A preemergence; type: in vivo, Avena fatua
Procedure, shortened: as §1

wheat [5] = experiment: Test A preemergence; type: in vivo, Triticum aestivum
Procedure, shortened: as §1

sedge, umbrella = experiment: Test B flooded paddy test; type: in vivo, Cyperus difformis; conditions: 250 g ai/ha, Flood, 13 days, 0 to 100 scale (0 no effect, 100 complete control)
Procedure, shortened: (§2)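 Percent weed or crop control, judged by eye on a 0–100 scale 13 days post-treatment, reflects compound added to a 3 cm flood maintained over 2-leaf plants in the greenhouse. Missing entries are marked with a dash.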

goosegrass [6] = experiment: Test A postemergence; type: in vivo, Eleusine indica
Procedure, shortened: as §1

blackgrass [7] = experiment: Test A preemergence; type: in vivo, Alopecurus myosuroides
Procedure, shortened: as §1

goosegrass [8] = experiment: Test A preemergence; type: in vivo, Eleusine indica
Procedure, shortened: as §1

barnyardgrass = experiment: Test B flooded paddy test; type: in vivo, Echinochloa crus-galli; conditions: 250 g ai/ha, Flood, 13 days, 0 to 100 scale (0 no effect, 100 complete control)
Procedure, shortened: as §2

ryegrass, Italian [9] = experiment: Test A postemergence; type: in vivo, Lolium multiflorum
Procedure, shortened: as §1

soybean [10] = experiment: Test A postemergence; type: in vivo, Glycine max
Procedure, shortened: as §1

ducksalad = experiment: Test B flooded paddy test; type: in vivo, Heteranthera limosa; conditions: 250 g ai/ha, Flood, 13 days, 0 to 100 scale (0 no effect, 100 complete control)
Procedure, shortened: as §2

corn [11] = experiment: Test A postemergence; type: in vivo, Zea mays
Procedure, shortened: as §1

soybean [12] = experiment: Test A preemergence; type: in vivo, Glycine max
Procedure, shortened: as §1

rice = experiment: Test B flooded paddy test; type: in vivo, Oryza sativa; conditions: 250 g ai/ha, Flood, 13 days, 0 to 100 scale (0 no effect, 100 complete control)
Procedure, shortened: as §2

ragweed [13] = experiment: Test A postemergence; type: in vivo, Ambrosia artemisiifolia
Procedure, shortened: as §1

pigweed, palmer [14] = experiment: Test A preemergence; type: in vivo, Amaranthus palmeri
Procedure, shortened: as §1

foxtail, giant [15] = experiment: Test A preemergence; type: in vivo, Setaria faberi
Procedure, shortened: as §1

corn [16] = experiment: Test A preemergence; type: in vivo, Zea mays
Procedure, shortened: as §1

ragweed [17] = experiment: Test A preemergence; type: in vivo, Ambrosia artemisiifolia
Procedure, shortened: as §1

ryegrass, Italian [18] = experiment: Test A preemergence; type: in vivo, Lolium multiflorum
Procedure, shortened: as §1

oat, wild [19] = experiment: Test A postemergence; type: in vivo, Avena fatua
Procedure, shortened: as §1

wheat [20] = experiment: Test A postemergence; type: in vivo, Triticum aestivum
Procedure, shortened: as §1

pigweed, palmer [21] = experiment: Test A postemergence; type: in vivo, Amaranthus palmeri
Procedure, shortened: as §1

foxtail, giant [22] = experiment: Test A postemergence; type: in vivo, Setaria faberi
Procedure, shortened: as §1

[23] = 125 g ai/ha, visual injury after 10 days, 0 to 100 scale, 0 is no effect, 100 is complete control
[24] = 500 g ai/ha, 0 to 100 scale (0 no effect, 100 complete control), 10 days
[25] = 125 g ai/ha, postemergence, 10 days, visual injury, 0 to 100 scale (0 no effect, 100 complete control)
[26] = 500 g ai/ha, Postemergence, 0 to 100 scale

CC1CN(C(=O)c2cccc(-n3cncn3)c2)c2cc(F)cc(F)c2O1 (stereo not shown) [Compound 45]
Plant response rating, Kochia (kochia [1]; [23]): 0
Plant response rating, Kochia (kochia [1]; [24]): 20
Plant response rating, Kochia (kochia [2]; [25]): 10
Plant response rating, Kochia (kochia [2]; [26]): 80
Plant response rating, Galium (galium; [25]): 80
Plant response rating, Galium (galium; [26]): 90
Plant response rating, Blackgrass (blackgrass [3]; [25]): 30
Plant response rating, Blackgrass (blackgrass [3]; [26]): 60
Plant response rating, Oat, Wild (oat, wild [4]; [23]): 0
Plant response rating, Oat, Wild (oat, wild [4]; [24]): 80
Plant response rating, Wheat (wheat [5]; [23]): 0
Plant response rating, Wheat (wheat [5]; [24]): 60
Plant response rating, Sedge, Umbrella (sedge, umbrella): 0
Plant response rating, Goosegrass (goosegrass [6]; [25]): 0
Plant response rating, Goosegrass (goosegrass [6]; [26]): 60
Plant response rating, Blackgrass (blackgrass [7]; [23]): 50
Plant response rating, Blackgrass (blackgrass [7]; [24]): 80
Plant response rating, Goosegrass (goosegrass [8]; [23]): 70
Plant response rating, Goosegrass (goosegrass [8]; [24]): 100
Plant response rating, Barnyardgrass (barnyardgrass): 0
Plant response rating, Ryegrass, Italian (ryegrass, Italian [9]; [25]): 50
Plant response rating, Ryegrass, Italian (ryegrass, Italian [9]; [26]): 80
Plant response rating, Soybean (soybean [10]; [25]): 100
Plant response rating, Soybean (soybean [10]; [26]): 100
Plant response rating, Ducksalad (ducksalad): 0
Plant response rating, Corn (corn [11]; [25]): 10
Plant response rating, Corn (corn [11]; [26]): 20
Plant response rating, Soybean (soybean [12]; [23]): 20
Plant response rating, Soybean (soybean [12]; [24]): 90
Plant response rating, Rice (rice): 0
Plant response rating, Ragweed (ragweed [13]; [25]): 0
Plant response rating, Ragweed (ragweed [13]; [26]): 30
Plant response rating, Pigweed, Palmer (pigweed, palmer [14]; [23]): 30
Plant response rating, Pigweed, Palmer (pigweed, palmer [14]; [24]): 70
Plant response rating, Foxtail, Giant (foxtail, giant [15]; [23]): 70
Plant response rating, Foxtail, Giant (foxtail, giant [15]; [24]): 100
Plant response rating, Corn (corn [16]; [23]): 0
Plant response rating, Corn (corn [16]; [24]): 20
Plant response rating, Ragweed (ragweed [17]; [23]): 0
Plant response rating, Ragweed (ragweed [17]; [24]): 0
Plant response rating, Ryegrass, Italian (ryegrass, Italian [18]; [23]): 70
Plant response rating, Ryegrass, Italian (ryegrass, Italian [18]; [24]): 90
Plant response rating, Oat, Wild (oat, wild [19]; [25]): 0
Plant response rating, Oat, Wild (oat, wild [19]; [26]): 20
Plant response rating, Wheat (wheat [20]; [25]): 10
Plant response rating, Wheat (wheat [20]; [26]): 40
Plant response rating, Pigweed, Palmer (pigweed, palmer [21]; [25]): 30
Plant response rating, Pigweed, Palmer (pigweed, palmer [21]; [26]): 10
Plant response rating, Foxtail, Giant (foxtail, giant [22]; [25]): 20
Plant response rating, Foxtail, Giant (foxtail, giant [22]; [26]): 90

CC1CN(C(=O)c2cc(F)cc(-n3cncn3)c2)c2cccc(Cl)c2O1 (stereo not shown) [Compound 37]
Plant response rating, Kochia (kochia [1]; [23]): 0
Plant response rating, Kochia (kochia [1]; [24]): 20
Plant response rating, Kochia (kochia [2]; [25]): 50
Plant response rating, Kochia (kochia [2]; [26]): 90
Plant response rating, Galium (galium; [25]): 40
Plant response rating, Galium (galium; [26]): 100
Plant response rating, Blackgrass (blackgrass [3]; [25]): 30
Plant response rating, Blackgrass (blackgrass [3]; [26]): 80
Plant response rating, Oat, Wild (oat, wild [4]; [23]): 0
Plant response rating, Oat, Wild (oat, wild [4]; [24]): 60
Plant response rating, Wheat (wheat [5]; [23]): 0
Plant response rating, Wheat (wheat [5]; [24]): 20
Plant response rating, Sedge, Umbrella (sedge, umbrella): 0
Plant response rating, Goosegrass (goosegrass [6]; [25]): 40
Plant response rating, Goosegrass (goosegrass [6]; [26]): 90
Plant response rating, Blackgrass (blackgrass [7]; [23]): 60
Plant response rating, Blackgrass (blackgrass [7]; [24]): 80
Plant response rating, Goosegrass (goosegrass [8]; [23]): 90
Plant response rating, Goosegrass (goosegrass [8]; [24]): 100
Plant response rating, Barnyardgrass (barnyardgrass): 0
Plant response rating, Ryegrass, Italian (ryegrass, Italian [9]; [25]): 30
Plant response rating, Ryegrass, Italian (ryegrass, Italian [9]; [26]): 90
Plant response rating, Soybean (soybean [10]; [25]): 100
Plant response rating, Soybean (soybean [10]; [26]): 100
Plant response rating, Ducksalad (ducksalad): 0
Plant response rating, Corn (corn [11]; [25]): 10
Plant response rating, Corn (corn [11]; [26]): 80
Plant response rating, Soybean (soybean [12]; [23]): 0
Plant response rating, Soybean (soybean [12]; [24]): 70
Plant response rating, Rice (rice): 0
Plant response rating, Ragweed (ragweed [13]; [25]): 0
Plant response rating, Ragweed (ragweed [13]; [26]): 0
Plant response rating, Pigweed, Palmer (pigweed, palmer [14]; [23]): 50
Plant response rating, Pigweed, Palmer (pigweed, palmer [14]; [24]): 90
Plant response rating, Foxtail, Giant (foxtail, giant [15]; [23]): 90
Plant response rating, Foxtail, Giant (foxtail, giant [15]; [24]): 100
Plant response rating, Corn (corn [16]; [23]): 0
Plant response rating, Corn (corn [16]; [24]): 20
Plant response rating, Ragweed (ragweed [17]; [23]): 0
Plant response rating, Ragweed (ragweed [17]; [24]): 0
Plant response rating, Ryegrass, Italian (ryegrass, Italian [18]; [23]): 80
Plant response rating, Ryegrass, Italian (ryegrass, Italian [18]; [24]): 90
Plant response rating, Oat, Wild (oat, wild [19]; [25]): 0
Plant response rating, Oat, Wild (oat, wild [19]; [26]): 30
Plant response rating, Wheat (wheat [20]; [25]): 40
Plant response rating, Wheat (wheat [20]; [26]): 80
Plant response rating, Pigweed, Palmer (pigweed, palmer [21]; [25]): 30
Plant response rating, Pigweed, Palmer (pigweed, palmer [21]; [26]): 60
Plant response rating, Foxtail, Giant (foxtail, giant [22]; [25]): 50
Plant response rating, Foxtail, Giant (foxtail, giant [22]; [26]): 90
